Reference: ChEMBL document CHEMBL1152778, “Design, synthesis, and biological evaluation of (2R,alphaS)-3,4-dihydro-2-[3-(1,1,2,2-tetrafluoroethoxy)phenyl]-5-[3-(trifluoromethoxy)-phenyl]-alpha-(trifluoromethyl)-1(2H)-quinolineethanol as potent and orally active cholesteryl ester transfer protein inhibitor” (J Med Chem, 2009)
Active and inactive are the calls of the source. The calls are words filed in the database; no cut-off is given here.

Experiments:
Cynomolgus monkey [1] = assay: Ex vivo inhibition of CETP in po dosed normal chow diet-fed cynomolgus monkey by Roar assay; format: functional, organism-based; conditions: Macaca fascicularis
Cynomolgus monkey [2] = assay: Ex vivo inhibition of CETP in normal chow diet-fed cynomolgus monkey at 10 mg/kg, po for 5 days by Roar assay; format: functional; conditions: Macaca fascicularis, 120 h
Hamster [3] = assay: Increase in HDLC level in high-fat fed hamster model at 30 mg/kg, po for 5 days measured after 2 hrs of last dose; format: functional, Cricetinae
[4] = Metabolic stability in human liver microsomes assessed as half life; format: ADME, Microsome
[5] = Tmax in rat at 2 to 3 mg/kg, iv and 10 mg/kg, po; format: ADME, organism-based; conditions: in vivo
[6] = Plasma concentration in normal chow diet-fed cynomolgus monkey at 30 mg/kg, po for 5 days; format: ADME, organism-based, Macaca fascicularis; parameters: dose 30 mg/kg, route oral
Mus musculus [7] = assay: Increase in HDLC level in normal chow diet-fed human CETP transgenic mouse model at 30 mg/kg, po for 5 days measured after 2 hrs of last dose; format: functional
[8] = Inhibition of CETP-mediated transfer of cholesteryl ester to LDL/VLDL in rabbit plasma by Roar assay; format: cell-free; conditions: Oryctolagus cuniculus
[9] = molecular target: T1, Cholesteryl ester transfer protein (Homo sapiens, UniProt P11597); assay: Inhibition of CETP-mediated transfer of [3H]cholesteryl ester from HDL in human plasma after 18 hrs; format: cell-free
T1 sequence (P11597 whole entry): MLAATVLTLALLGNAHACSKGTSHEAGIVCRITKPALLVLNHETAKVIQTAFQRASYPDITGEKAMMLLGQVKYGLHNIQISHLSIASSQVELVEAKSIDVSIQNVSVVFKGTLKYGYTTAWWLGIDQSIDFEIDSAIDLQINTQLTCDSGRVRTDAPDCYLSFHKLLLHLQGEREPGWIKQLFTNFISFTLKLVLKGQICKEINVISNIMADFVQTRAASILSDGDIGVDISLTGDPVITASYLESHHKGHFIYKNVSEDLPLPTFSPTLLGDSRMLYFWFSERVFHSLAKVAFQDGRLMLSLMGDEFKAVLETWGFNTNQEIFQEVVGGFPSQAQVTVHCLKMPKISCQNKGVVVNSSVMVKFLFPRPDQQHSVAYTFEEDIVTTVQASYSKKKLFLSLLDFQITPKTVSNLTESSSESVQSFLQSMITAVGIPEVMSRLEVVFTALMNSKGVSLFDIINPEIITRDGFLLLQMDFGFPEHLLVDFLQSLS

[10] = Volume of distribution at steady state in rat at 2 to 3 mg/kg, iv and 10 mg/kg, po; format: ADME, organism-based; conditions: in vivo, read-out: Vdss
Mus musculus [11] = assay: Increase in HDLC level in normal chow diet-fed human CETP transgenic mouse model at 10 mg/kg, po for 5 days measured after 2 hrs of last dose; format: functional
[12] = Half life in rat at 2 to 3 mg/kg, iv and 10 mg/kg, po; format: ADME, organism-based; conditions: in vivo
[13] = Clearance in rat at 2 to 3 mg/kg, iv and 10 mg/kg, po; format: ADME, organism-based; conditions: in vivo
Cynomolgus monkey [14] = assay: Increase in HDLC level in normal chow diet-fed cynomolgus monkey at 30 mg/kg, po for 5 days measured after 10 hrs of last dose; format: functional, Macaca fascicularis
Hamster [15] = assay: Increase in HDLC to LDLC ratio in high-fat fed hamster model at 3 to 30 mg/kg, po for 5 days measured after 2 hrs of last dose; format: functional, Cricetinae; conditions: dose mg/kg 3-30
[16] = Oral bioavailability in rat at 10 mg/kg; format: ADME, organism-based; conditions: in vivo
[17] = molecular target: T2, Endothelial lipase (Homo sapiens) (UniProt Q9Y5X9); assay: Inhibition of endothelial lipase by cell based assay
T2 sequence (whole entry): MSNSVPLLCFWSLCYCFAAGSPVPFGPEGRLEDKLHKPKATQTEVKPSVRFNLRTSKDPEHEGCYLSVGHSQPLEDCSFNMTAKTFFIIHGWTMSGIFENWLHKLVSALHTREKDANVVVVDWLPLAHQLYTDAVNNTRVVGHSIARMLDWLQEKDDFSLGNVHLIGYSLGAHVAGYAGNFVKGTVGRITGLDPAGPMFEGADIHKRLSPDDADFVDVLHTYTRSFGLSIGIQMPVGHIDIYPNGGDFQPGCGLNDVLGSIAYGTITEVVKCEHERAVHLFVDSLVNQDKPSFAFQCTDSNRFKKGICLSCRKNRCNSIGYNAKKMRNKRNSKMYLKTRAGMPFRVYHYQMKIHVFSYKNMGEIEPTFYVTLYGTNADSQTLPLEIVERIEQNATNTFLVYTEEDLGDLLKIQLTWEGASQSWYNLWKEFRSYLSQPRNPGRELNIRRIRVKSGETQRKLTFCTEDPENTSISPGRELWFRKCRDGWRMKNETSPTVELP

[18] = AUC in rat at 2 to 3 mg/kg, iv and 10 mg/kg, po; format: ADME, organism-based; conditions: plasma
[19] = molecular target: T3, Lipoprotein lipase (Homo sapiens) (UniProt P06858); assay: Inhibition of lipoprotein lipase activity assessed as release of free fatty acid from hydrolysis of VLDL by cell based assay
T3 sequence (whole entry): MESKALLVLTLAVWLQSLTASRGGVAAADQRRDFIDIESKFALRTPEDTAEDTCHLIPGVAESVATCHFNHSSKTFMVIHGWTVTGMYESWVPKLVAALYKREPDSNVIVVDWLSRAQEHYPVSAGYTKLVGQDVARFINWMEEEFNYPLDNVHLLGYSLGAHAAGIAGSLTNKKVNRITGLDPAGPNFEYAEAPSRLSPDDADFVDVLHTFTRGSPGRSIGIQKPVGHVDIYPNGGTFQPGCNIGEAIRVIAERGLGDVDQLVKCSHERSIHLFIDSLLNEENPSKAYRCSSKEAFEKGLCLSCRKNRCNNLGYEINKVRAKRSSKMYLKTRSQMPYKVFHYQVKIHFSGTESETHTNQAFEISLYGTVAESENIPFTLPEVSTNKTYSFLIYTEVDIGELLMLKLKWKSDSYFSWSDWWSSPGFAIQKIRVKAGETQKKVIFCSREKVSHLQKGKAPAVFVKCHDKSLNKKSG

Cynomolgus monkey [20] = assay: Increase in HDLC level in normal chow diet-fed cynomolgus monkey at 10 mg/kg, po for 5 days measured after 10 hrs of last dose; format: functional, Macaca fascicularis

## O[C@@H](CN1c2cccc(-c3cccc(OC(F)(F)F)c3)c2CC[C@@H]1c1cccc(OC(F)(F)C(F)F)c1)C(F)(F)F
Cynomolgus monkey [1]
  Activity: Dose-dependent effect
Cynomolgus monkey [2]
  inhibition in vivo at 10 mg/kg: 51%
Hamster [3]
  Activity: 40%
[4]
  half-life: > 2.13 h
[5]
  Tmax: 6 h
[6]
  concentration at 120 h: 5.9 µM
Mus musculus [7]
  Activity: 25%
[8]
  IC50: 3.5 µM
[9]
  IC50: 0.2 µM
[10]
  Vd: 0.36 L/kg
Mus musculus [11]
  Activity: 36%
[12]
  half-life: 28 h
[13]
  clearance: 0.108 L/h/kg
Cynomolgus monkey [14]
  Activity: 32%
Hamster [15]
  Activity: 4.6
[16]
  bioavailability: 31%
[17]
  Activity: inactive
[18]
  AUC: 31.3 µg·h/mL
[19]
  Activity: inactive
Cynomolgus monkey [20]
  Activity: 16%
